Calls of active or inactive are those of the source.
How the values were obtained:
[1] = target: Opioid receptors; mu & delta (Homo sapiens, UniProt P41143+P35372); test: agonists of MOR-DOR heterodimerization, dose response, cell-based, luminescence (AID 588407); type: functional
[2] = system: HEK293; test: optical interference in Abeta FP readout, dose response, artefact control for IDE activator project, biochemical, fluorescence polarization (AID 588442); type: functional, cell-based; settings: Homo sapiens
[3] = system: INS1; test: beta cell apoptosis inhibitors, cytokine rescue, dose response, luminescence, retest (AID 449756); type: functional, cell-based; settings: Rattus norvegicus;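 also: cell death triggered by IL-1 beta plus TNF-alpha plus IFN-gamma mixture; protective hits raise ATP signal compared with cytokine alone wells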
[4] = system: HEK293; test: HEK cell cytotoxicity by LDH release, dose response, cytotoxicity control for IDE activator project, fluorescence, HEK cells (AID 588440); type: functional, cell-based; settings: Homo sapiens;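 also: cytotoxicity by LDH release measuring loss of membrane integrity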
[5] = system: HeLa; test: HeLa cell cytotoxicity, dose response, cytotoxicity control for MITF activator project, CellTiter-Glo luminescence, cherry-pick samples (AID 540259); type: functional, cell-based; settings: Homo sapiens
[6] = system: HEK293; test: cells; settings: Homo sapiens
[7] = target: Nucleotide-binding oligomerization domain-containing protein 1 (Homo sapiens, UniProt Q9Y239); test: NOD1 signaling inhibitors, SAR follow-up, revised (AID 2333); type: functional
[8] = target: Tumor necrosis factor (Homo sapiens, UniProt P01375); test: TNFa-triggered NF-kB activation inhibitors, SAR follow-up, cell-based, revised (AID 2337); type: functional
[9] = system: Candida albicans; test: growth inhibition of resistant C. albicans, dose response, CaCi-8 strain, fluconazole, dry powder, set 4 (AID 488950); type: functional, organism-based
[10] = system: Candida albicans; test: growth inhibition of azole-resistant C. albicans, dose response, CaCi-8 strain, Alamar Blue, dry powder, set 2 (AID 488909); type: functional, organism-based
[11] = system: Candida albicans; test: fluconazole resistance reversal in C. albicans, dose response, CaCi-2 strain, Alamar Blue, dry powder, set 4 (AID 488943); type: functional, organism-based
[12] = C. albicans growth with fluconazole, confirmation, fluorescence, retest (AID 2467); type: functional, cell-based
[13] = target: T1, Heat shock factor protein 1 (Mus musculus, UniProt P38532); test: HSF1 potentiators in luciferase reporter cells, confirmation, cell-based, NIH3T3, luminescence, dose retest (AID 435004); type: functional;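 also: stress induced by proteasome inhibitor MG132 added 30 min after compound; luciferase reporter driven by HSF1 response element in NIH3T3 cells; actives raise luminescence as potentiators of the MG132 stress response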
T1 sequence (P38532 whole entry): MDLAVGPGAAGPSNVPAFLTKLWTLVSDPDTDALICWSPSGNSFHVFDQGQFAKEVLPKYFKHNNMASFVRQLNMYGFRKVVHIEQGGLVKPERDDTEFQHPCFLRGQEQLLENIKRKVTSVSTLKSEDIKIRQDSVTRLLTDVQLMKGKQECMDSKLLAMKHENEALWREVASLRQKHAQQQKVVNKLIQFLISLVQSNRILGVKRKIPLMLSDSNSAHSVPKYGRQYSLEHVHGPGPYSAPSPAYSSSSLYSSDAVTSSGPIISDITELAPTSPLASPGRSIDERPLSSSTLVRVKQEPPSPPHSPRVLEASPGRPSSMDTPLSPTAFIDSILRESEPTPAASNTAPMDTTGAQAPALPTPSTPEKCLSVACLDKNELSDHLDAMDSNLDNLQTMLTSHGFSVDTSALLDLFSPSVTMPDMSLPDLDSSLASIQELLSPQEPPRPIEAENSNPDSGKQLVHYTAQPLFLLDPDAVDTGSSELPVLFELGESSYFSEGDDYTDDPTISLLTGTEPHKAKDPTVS

[14] = NIH-3T3 fibroblast cytotoxicity, dose response, cytotoxicity control, cell-based, fluorescence, Alamar Blue, secondary assay (AID 2327); type: functional;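 also: NIH-3T3 mouse fibroblasts cultured with fluconazole at 8 µg/mL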
[15] = target: ATP-dependent molecular chaperone HSP82 (Candida albicans (strain WO-1) (Yeast), UniProt C4YTQ8); test: loss of DOC-induced GRE-beta-galactosidase reporter signal, dose response, Hsp90 inhibitor project, S. cerevisiae, luminescence (AID 2400); type: functional, cell-based;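 also: beta-galactosidase luminescence from glucocorticoid response element reporter as proxy for Hsp90 function; inhibitor potency where signal loss means Hsp90 inhibition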
[16] = target: Serine/threonine-protein phosphatase (Candida dubliniensis (strain CD36 / CBS 7987 / NCPF 3949 / NRRLY-17841) (Yeast), UniProt B9W6M3); test: calcineurin pathway inhibitors in yeast reporter, dose response, S. cerevisiae, CDRE-lacZ, luminescence, secondary (AID 2388); type: functional, cell-based;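 also: yeast reporter cells carrying a calcineurin-responsive lacZ construct stimulated with calcium chloride; luminescent beta-galactosidase reporter signal in whole cells rather than isolated phosphatase activity; potency for inhibition where a drop in reporter signal means calcineurin blockade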

With `Clc1ccc(C(c2ccc(Cl)cc2)[n+]2ccn(CC(OCc3ccc(Cl)cc3Cl)c3ccc(Cl)cc3Cl)c2)cc1.[Cl-]` (stereo unspecified) [CALMIDAZOLIUM CHLORIDE] as the compound, how does the EC50 [1] read?
Its EC50 is over 3.426 µM.

And the EC50 [2]?
Its EC50 is > 54.7 µM (inactive).

And the AC50 [3]?
Its AC50 is 2.56 µM (active).

What about the IC50 [4] of the same compound?
The IC50 was 2.01 µM (active).

For `CCc1ccc(C(=O)NC2CCCCC2)s1`, which AC50 [5] is on record?
Its AC50 is 87.6 µM (active).

With `COc1ccc(N2CCN(S(=O)(=O)c3ccc4c(c3)CC(C)N4C(=O)C3CC3)CC2)cc1` (stereo unspecified) as the compound, how does the IC50 [6] read?
Its IC50 is > 20 µM (inactive).

What about the IC50 [7] of the same compound?
Its IC50 is 0.506 µM (active).

And the IC50 [8]?
Its IC50 is 3.85 µM (active).

With `CC(C)CC(=O)N1CCN(c2ccnc3cc(Cl)ccc23)CC1` as the compound, how does the AC50 [9] read?
Its AC50 is 6.04 µM (active).

What about the AC50 [10] of the same compound?
Its AC50 is 12.7 µM (active).

And the AC50 [11]?
The AC50 was 5.54 µM (active).

Which EC50 [12] does the source give for `CCC(C)n1cnc2c(c1=O)c1nc3ccccc3nc1n2Cc1ccc(OC)cc1` (stereo unspecified) here?
Its EC50 is 0.356 µM (active).

And the EC50 [13]?
Its EC50 is > 260 µM (inactive).

What about the EC50 [14] of the same compound?
Its EC50 is 47.7 µM (active).

And the EC50 [15]?
Its EC50 is 14.7 µM (active).

What about the EC50 [16] of the same compound?
Its EC50 is > 180 µM (inactive).

From ChEMBL document CHEMBL1201862, “PubChem BioAssay data set” (2004)
